Assay results published in patent publication US20260374756A1, “HETEROCYCLIC COMPOUNDS AS INHIBITORS OF MONOACYLGLYCEROL LIPASE (MAGL)” (Hoffmann-La Roche Inc., priority 2022, published 2026).

Molecular target: T1, hMAGL (Homo sapiens, UniProt Q99685)
T1 sequence (Q99685 1-303): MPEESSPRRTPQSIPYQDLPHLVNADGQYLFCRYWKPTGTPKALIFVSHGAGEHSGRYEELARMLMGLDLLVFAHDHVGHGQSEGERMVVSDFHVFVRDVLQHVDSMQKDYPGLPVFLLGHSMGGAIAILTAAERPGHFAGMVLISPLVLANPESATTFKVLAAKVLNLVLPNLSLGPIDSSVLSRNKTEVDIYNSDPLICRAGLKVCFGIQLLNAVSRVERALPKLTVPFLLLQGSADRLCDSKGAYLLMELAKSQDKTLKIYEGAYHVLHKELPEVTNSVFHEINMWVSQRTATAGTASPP
Test: 2-AG assay: MAGL inhibition, hydrolysis of 2-arachidonoylglycerol to arachidonic acid followed by mass spectrometry
Format: biochemical
Procedure, shortened: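 MAGL preincubated with compound 15 min at RT in 50 mM Tris, 1 mM EDTA, 0.01% Tween-20, 2.5% DMSO; reaction started with 8 μM 2-AG (final), […], 30 min at RT. Quenched with acetonitrile containing d8-arachidonic acid; arachidonic acid quantified by RapidFire SPE-triple quad MS as arachidonic acid/d8 ratio.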

| IC50 [nM] | SMILES |
| --- | --- |
| 25.6 | N=S(=O)(c1cnn(CC2CC3(C2)CN(C(=O)N2CC4(CC(n5cnc(C(F)F)n5)C4)C2)C3)c1)C(F)(F)F (centres unmarked) [Example 324, [6-[3-(difluoromethyl)-1,2,4-triazol-1-yl]-2-azaspiro[3.3]heptan-2-yl]-[6-[[4-(trifluoromethylsulfonimidoyl)pyrazol-1-yl]methyl]-2-azaspiro[3.3]heptan-2-yl]methanone] |
| 13.1 | O=C(N1CC2(CCN(Cc3ncc(C(F)F)s3)CC2)C1)N1CC2(CC(n3cnc(C(F)(F)F)n3)C2)C1 [Example 31, [7-[[5-(difluoromethyl)thiazol-2-yl]methyl]-2,7-diazaspiro[3.5]nonan-2-yl]-[6-[3-(trifluoromethyl)-1,2,4-triazol-1-yl]-2-azaspiro[3.3]heptan-2-yl]methanone] |
| 8.82 | O=C(N1CC2(CC(n3cnc(C4CC4)n3)C2)C1)N1CC2(CN(Cc3conc3C(F)(F)F)C2)C1 [Example 219, [6-(3-cyclopropyl-1,2,4-triazol-1-yl)-2-azaspiro[3.3]heptan-2-yl]-[6-[[3-(trifluoromethyl)isoxazol-4-yl]methyl]-2,6-diazaspiro[3.3]heptan-2-yl]methanone] |
| 0.1 | O=C(N1CC2(CC(Cc3nsc(C(F)(F)F)n3)C2)C1)N1CC2(CC(n3cnc(C4CC4)n3)C2)C1 [Example 21, [6-(3-cyclopropyl-1,2,4-triazol-1-yl)-2-azaspiro[3.3]heptan-2-yl]-[6-[[5-(trifluoromethyl)-1,2,4-thiadiazol-3-yl]methyl]-2-azaspiro[3.3]heptan-2-yl]methanone] |
| 386 | O=C(N1CC2(CC(n3cnc(C(F)(F)F)n3)C2)C1)N1CC2(CN(Cc3ccn(CC(F)(F)F)n3)C2)C1 [Example 99, [6-[[1-(2,2,2-trifluoroethyl)pyrazol-3-yl]methyl]-2,6-diazaspiro[3.3]heptan-2-yl]-[6-[3-(trifluoromethyl)-1,2,4-triazol-1-yl]-2-azaspiro[3.3]heptan-2-yl]methanone] |
| 131 | Cc1cc(C(F)(F)F)nn1CC1CC2(C1)CN(C(=O)N1CC3(CC(n4cnc(C5(O)CC5)n4)C3)C1)C2 [Example 70] |
| 1.52 | O=C(N1CC2(CC(n3cnc(C4CC4)n3)C2)C1)N1CC2(CN(Cc3ncc(C(F)(F)F)s3)C2)C1 [Example 150, [6-(3-cyclopropyl-1,2,4-triazol-1-yl)-2-azaspiro[3.3]heptan-2-yl]-[6-[[5-(trifluoromethyl)thiazol-2-yl]methyl]-2,6-diazaspiro[3.3]heptan-2-yl]methanone] |
| 10.3 | O=C(N1CC2(CC(Cn3ncnc3C(F)(F)F)C2)C1)N1CC2(CC(n3cnc(C(F)(F)F)n3)C2)C1 [Example 333, [6-[3-(trifluoromethyl)-1,2,4-triazol-1-yl]-2-azaspiro[3.3]heptan-2-yl]-[6-[[5-(trifluoromethyl)-1,2,4-triazol-1-yl]methyl]-2-azaspiro[3.3]heptan-2-yl]methanone] |
| 16.8 | Cn1cc(CN2CC3(C2)CN(C(=O)N2CC4(CC(n5cnc(C6CC6)n5)C4)C2)C3)c(C(F)(F)F)n1 [Example 192] |
| 439 | O=C(N1CC2(CC(n3cnc(C(F)(F)F)n3)C2)C1)N1CC2(CN(Cc3cnn(CC(F)(F)F)n3)C2)C1 [Example 195, [6-[[2-(2,2,2-trifluoroethyl)triazol-4-yl]methyl]-2,6-diazaspiro[3.3]heptan-2-yl]-[6-[3-(trifluoromethyl)-1,2,4-triazol-1-yl]-2-azaspiro[3.3]heptan-2-yl]methanone] |
| 5.1 | O=C(N1CC2(CC(Cn3ccc(C(F)(F)F)n3)C2)C1)N1CC2(CC(n3cnc(C4(O)CC4)n3)C2)C1 [Example 293, [6-[3-(1-hydroxycyclopropyl)-1,2,4-triazol-1-yl]-2-azaspiro[3.3]heptan-2-yl]-[6-[[3-(trifluoromethyl)pyrazol-1-yl]methyl]-2-azaspiro[3.3]heptan-2-yl]methanone] |
| 0.85 | O=C(N1CC2(CC(Cc3nsc(C(F)(F)F)n3)C2)C1)N1CC2(CC(n3cnc(C(F)(F)F)n3)C2)C1 [Example 20, [6-[[5-(trifluoromethyl)-1,2,4-thiadiazol-3-yl]methyl]-2-azaspiro[3.3]heptan-2-yl]-[6-[3-(trifluoromethyl)-1,2,4-triazol-1-yl]-2-azaspiro[3.3]heptan-2-yl]methanone] |
| 205 | O=C(N1CC2(CC(n3cnc(C(F)(F)F)n3)C2)C1)N1CC2(CN(Cc3ccnn3CC(F)(F)F)C2)C1 [Example 222] |
| 0.13 | O=C(N1CC2(CC(Cc3cnn4c(C(F)(F)F)ccnc34)C2)C1)N1CC2(CC(n3cnc(C4CC4)n3)C2)C1 [Example 359, [6-(3-cyclopropyl-1,2,4-triazol-1-yl)-2-azaspiro[3.3]heptan-2-yl]-[6-[[7-(trifluoromethyl)pyrazolo[1,5-a]pyrimidin-3-yl]methyl]-2-azaspiro[3.3]heptan-2-yl]methanone] |

The next lines start with the compound.

| SMILES | IC50 [nM] |
| --- | --- |
| CC(C)(C)c1ncc(CN2CC3(C2)CN(C(=O)N2CC4(CC(n5cnc(C6(O)CC6)n5)C4)C2)C3)s1 [Example 58, [6-[(2-tert-butylthiazol-5-yl)methyl]-2,6-diazaspiro[3.3]heptan-2-yl]-[6-[3-(1-hydroxycyclopropyl)-1,2,4-triazol-1-yl]-2-azaspiro[3.3]heptan-2-yl]methanone] | 8.12 |
| O=C(N1CC2(CCN(Cc3cc(C(F)(F)F)no3)CC2)C1)N1CC2(CC(n3cnc(C4(O)CC4)n3)C2)C1 [Example 18, [6-[3-(1-hydroxycyclopropyl)-1,2,4-triazol-1-yl]-2-azaspiro[3.3]heptan-2-yl]-[7-[[3-(trifluoromethyl)isoxazol-5-yl]methyl]-2,7-diazaspiro[3.5]nonan-2-yl]methanone] | 334 |
| Cc1nn(CC(F)(F)F)cc1CN1CC2(C1)CN(C(=O)N1CC3(CC(n4cnc(C5(O)CC5)n4)C3)C1)C2 [Example 111, [6-[3-(1-hydroxycyclopropyl)-1,2,4-triazol-1-yl]-2-azaspiro[3.3]heptan-2-yl]-[6-[[3-methyl-1-(2,2,2-trifluoroethyl)pyrazol-4-yl]methyl]-2,6-diazaspiro[3.3]heptan-2-yl]methanone] | 3900 |
| Cc1nc(C)c(CN2CC3(C2)CN(C(=O)N2CC4(CC(n5cnc(C6CC6)n5)C4)C2)C3)o1 [Example 307, [6-(3-cyclopropyl-1,2,4-triazol-1-yl)-2-azaspiro[3.3]heptan-2-yl]-[6-[(2,4-dimethyloxazol-5-yl)methyl]-2,6-diazaspiro[3.3]heptan-2-yl]methanone] | 102 |
| O=C(N1CC2(CC(n3cnc(C4CC4)n3)C2)C1)N1CC2(CN(Cc3ccnn3CC(F)F)C2)C1 [Example 261, [6-(3-cyclopropyl-1,2,4-triazol-1-yl)-2-azaspiro[3.3]heptan-2-yl]-[6-[[2-(2,2-difluoroethyl)pyrazol-3-yl]methyl]-2,6-diazaspiro[3.3]heptan-2-yl]methanone] | 95.7 |
| Cc1sc(CN2CC3(C2)CN(C(=O)N2CC4(CC(n5cnc(C(F)(F)F)n5)C4)C2)C3)nc1C(F)(F)F [Example 54, [6-[[5-methyl-4-(trifluoromethyl)thiazol-2-yl]methyl]-2,6-diazaspiro[3.3]heptan-2-yl]-[6-[3-(trifluoromethyl)-1,2,4-triazol-1-yl]-2-azaspiro[3.3]heptan-2-yl]methanone] | 85.7 |
| O=C(N1CC2(CC(c3cc(C4CC4)n[nH]3)C2)C1)N1CC2(CN(Cc3nc(C(F)(F)F)no3)C2)C1 [Example 171, [6-(3-cyclopropyl-1H-pyrazol-5-yl)-2-azaspiro[3.3]heptan-2-yl]-[6-[[3-(trifluoromethyl)-1,2,4-oxadiazol-5-yl]methyl]-2,6-diazaspiro[3.3]heptan-2-yl]methanone] | 9.95 |
| O=C(N1CC2(CC(n3cnc(C(F)(F)F)n3)C2)C1)N1CC2(CN(Cc3snnc3C3CCC3)C2)C1 [Example 76, [6-[(4-cyclobutylthiadiazol-5-yl)methyl]-2,6-diazaspiro[3.3]heptan-2-yl]-[6-[3-(trifluoromethyl)-1,2,4-triazol-1-yl]-2-azaspiro[3.3]heptan-2-yl]methanone] | 5.73 |
| CC(C)(C)c1nnc(CN2CC3(C2)CN(C(=O)N2CC4(CC(n5cnc(C6(O)CC6)n5)C4)C2)C3)s1 [Example 210, [6-[(5-tert-butyl-1,3,4-thiadiazol-2-yl)methyl]-2,6-diazaspiro[3.3]heptan-2-yl]-[6-[3-(1-hydroxycyclopropyl)-1,2,4-triazol-1-yl]-2-azaspiro[3.3]heptan-2-yl]methanone] | 28 |
| CCn1nc(C(F)(F)F)cc1CN1CC2(C1)CN(C(=O)N1CC3(CC(n4cnc(C5CC5)n4)C3)C1)C2 [Example 170, [6-(3-cyclopropyl-1,2,4-triazol-1-yl)-2-azaspiro[3.3]heptan-2-yl]-[6-[[2-ethyl-5-(trifluoromethyl)pyrazol-3-yl]methyl]-2,6-diazaspiro[3.3]heptan-2-yl]methanone] | 2.23 |
| Cn1ncc(C(F)(F)F)c1CN1CC2(C1)CN(C(=O)N1CC3(CC(c4cc(C5CC5)n[nH]4)C3)C1)C2 [Example 157, [6-(3-cyclopropyl-1H-pyrazol-5-yl)-2-azaspiro[3.3]heptan-2-yl]-[6-[[2-methyl-4-(trifluoromethyl)pyrazol-3-yl]methyl]-2,6-diazaspiro[3.3]heptan-2-yl]methanone] | 0.63 |
| O=C(N1CC2(CC(n3cnc(C(F)(F)F)n3)C2)C1)N1CC2(CN(Cc3nnc(C(F)(F)F)s3)C2)C1 [Example 82, [6-[[5-(trifluoromethyl)-1,3,4-thiadiazol-2-yl]methyl]-2,6-diazaspiro[3.3]heptan-2-yl]-[6-[3-(trifluoromethyl)-1,2,4-triazol-1-yl]-2-azaspiro[3.3]heptan-2-yl]methanone] | 145 |
